“Also recorded” adds a separate entry of the source.
How the values were obtained:
[1] = target: T1, TLR2 (Homo sapiens, UniProt O60603); assay: Precipitation from human CD14 monocyte lysate, blot against TLR2; assay type: binding; conditions: labelled compound (OB201/OB221)
T1 construct: endogenous in cells; host or cells: primary human CD14 monocytes
Method: (§1) VB-201 and VB-221 were labeled with biotin as follows. VB-201, VB-221 and ovalbumin (OVA, Sigma, Israel) were dissolved in 0.1M MES buffer (Thermo Scientific, Rockford, IL) and conjugated using EDC [1-ethyl-3-(dimethylaminopropyl) carbodiimide HCL] (Thermo Scientific) at a molar ratio of 100 (VB-201/VB-221):1 (OVA):240 (EDC) for 2-3 hr at room temperature. After which, samples were transferred to 10 kDa dialysis cassettes (Thermo Scientific) and dialyzed overnight against PBS. The ovalbumin bound VB-201 (OB201) and VB-221 (OB221) were then conjugated with amine-PEG2-biotin (in 0.1M MES buffer) using EDC at a molar ratio of 1 (OB201/0B221):100 (amine-PEG2-biotin):700 (EDC). The reaction was allowed to proceed for 2-3 hr at room temperature after which samples were again transferred to a 10 kDa dialysis cassette and dialyzed overnight against PBS.
(§2) Cells were lysed using a 1% NP-40 lysis buffer containing 1:100 protease and phosphatase inhibitors, followed by 20 min incubation on ice and 15 min centrifugation at maximum speed. Samples were incubated overnight at 4° C. with solvent, OB201 or OB221 in a rotator. Streptavidin agarose beads (Sigma, Israel) were added for 2 hours. Protein elution was performed with lysis buffer without DTT for 10 min at room temperature. Sample loading, transfer and immuno-blotting were performed as described above. […]

[2] = target: T2, MOSPD2 (Homo sapiens, UniProt Q8NHP6); assay: Precipitation of human monocyte proteins with labeled compound, differential display by Mass-Spectrometry; assay type: binding; conditions: proteins from human monocytes
T2 construct: labelled VB-201 and VB-221 were employed on cell lysates from human CD14 monocytes; endogenous in cells; host or cells: primary human CD14 monocytes from peripheral blood of healthy donors
T2 sequence (Q8NHP6 1-518): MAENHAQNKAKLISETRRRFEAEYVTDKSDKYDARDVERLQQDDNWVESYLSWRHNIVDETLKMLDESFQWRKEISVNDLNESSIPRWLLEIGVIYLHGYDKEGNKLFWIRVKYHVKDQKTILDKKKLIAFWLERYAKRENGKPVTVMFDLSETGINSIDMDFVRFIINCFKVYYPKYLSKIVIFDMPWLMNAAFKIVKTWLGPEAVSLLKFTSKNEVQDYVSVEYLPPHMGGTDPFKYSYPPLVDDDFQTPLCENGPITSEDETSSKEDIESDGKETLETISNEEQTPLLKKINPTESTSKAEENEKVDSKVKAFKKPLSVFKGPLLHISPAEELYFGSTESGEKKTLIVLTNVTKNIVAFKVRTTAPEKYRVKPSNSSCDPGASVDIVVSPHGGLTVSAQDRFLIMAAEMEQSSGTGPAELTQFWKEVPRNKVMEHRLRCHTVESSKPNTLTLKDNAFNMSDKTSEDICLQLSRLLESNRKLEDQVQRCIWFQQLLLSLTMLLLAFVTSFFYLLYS

[3] = target: T3, HA-tagged human MOSPD2 on HEK293 cells (Homo sapiens, UniProt Q8NHP6); assay: Cell-surface binding by flow cytometry on transfected HEK293 cells; conditions: for staining of / binding to cells that express MOSPD2 (HA positive): labelled compound (OB201/OB221), streptavidin-APC, HEK293 transfected with HA-tagged MOSPD2
T3 construct: Full length human MOSPD2 cDNA was inserted, using EcoRI and XbaI restriction sites; HA (YPYDVPDYA); expressed in transfected cells; host or cells: HEK293
T3 sequence (Q8NHP6 1-518): T2 sequence (Q8NHP6 1-518)
Method: HEK293 cells were transfected for 48 hours with empty plasmid or plasmid encoding hemagglutinin (HA)-tagged human MOSPD2 using jetPRIME transfection reagent (Polyplus transfection, France). Transfection efficiency was determined by flow cytometry using anti-HA-PE (miltenyi Biotec, Germany) antibody.
as §1
Streptavidin-APC (eBioscience, San Diego, CA) was used to detect binding of labelled VB-201 or VB-221 in flow cytometry experiments.
Studies were also conducted to assess whether VB-201 can bind MOSPD2 in its native form, when expressed on the cell surface. Thus, HEK293 cells were transfected with a plasmid encoding HA-tagged human MOSPD2 and then stained with labelled VB-201 or VB-221.

[4] = tested on: monocytes; conditions: cited from earlier work
[5] = target: T2, MOSPD2; assay: Precipitation from human CD14 monocyte lysate, blot against MOSPD2; assay type: binding; conditions: labelled compound (OB201/OB221)
Method: as §1, §2

[6] = tested on: chemokine-induced signaling in human monocytes; conditions: cited from earlier work

T1 sequence (O60603 21-784): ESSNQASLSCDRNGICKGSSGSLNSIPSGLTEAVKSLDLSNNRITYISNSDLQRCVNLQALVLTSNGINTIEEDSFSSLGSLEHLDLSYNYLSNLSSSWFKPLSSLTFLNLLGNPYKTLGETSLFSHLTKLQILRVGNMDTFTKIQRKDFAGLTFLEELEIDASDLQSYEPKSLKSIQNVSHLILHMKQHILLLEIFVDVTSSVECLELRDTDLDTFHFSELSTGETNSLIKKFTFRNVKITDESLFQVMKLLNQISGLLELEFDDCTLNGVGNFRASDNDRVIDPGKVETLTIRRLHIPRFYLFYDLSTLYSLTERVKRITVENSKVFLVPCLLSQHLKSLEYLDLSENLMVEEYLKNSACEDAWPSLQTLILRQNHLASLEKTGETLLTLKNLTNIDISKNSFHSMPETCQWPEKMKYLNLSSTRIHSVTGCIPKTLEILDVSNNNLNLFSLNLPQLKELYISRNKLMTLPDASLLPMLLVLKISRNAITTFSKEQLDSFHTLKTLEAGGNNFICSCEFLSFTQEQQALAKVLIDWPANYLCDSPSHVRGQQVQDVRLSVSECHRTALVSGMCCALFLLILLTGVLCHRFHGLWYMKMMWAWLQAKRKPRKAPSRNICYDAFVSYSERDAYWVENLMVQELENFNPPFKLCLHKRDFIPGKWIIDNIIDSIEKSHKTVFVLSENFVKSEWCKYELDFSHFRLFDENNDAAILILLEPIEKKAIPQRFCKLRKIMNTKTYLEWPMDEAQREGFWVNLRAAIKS

## 1-hexadecyl-2-(4′-carboxy)butyl-glycero-3-phosphocholine [VB-201]
[1]
  precipitation of TLR2: comparable intensity
[2]
  binding of MOSPD2 (Mass-Spectrometry of precipitated proteins): strong binding
[3]; HEK293 transfected with empty vector
  binding to cells transfected with empty vector: not
[3]
  staining of / binding to cells that express MOSPD2 (HA positive): binds; also recorded: profound staining
[4]; in vitro and in vivo
  migration of monocytes: inhibits
[5]
  precipitation of MOSPD2: binds; also recorded: markedly more intense than VB-221

## CCCCCCCCCCC(CCCCCCCC)COCC(COP(=O)([O-])OCC[N+](C)(C)C)OCCCCC(=O)O (centres unmarked) [VB-221, 1-(2′-octyl)dodecyl-2-(4′-carboxy)butyl-glycero-3-phosphocholine]
[1]
  precipitation of TLR2: comparable intensity
[6]
  chemokine-induced signaling in human monocytes: did not inhibit
[2]
  binding of MOSPD2 (Mass-Spectrometry of precipitated proteins): not
[3]
  staining of / binding to cells that express MOSPD2 (HA positive): only weak staining
[4]
  chemokine-induced migration in human monocytes: did not inhibit

Reference: patent US12109264B2, “Motile sperm domain containing protein 2 and inflammation” (ImmuneWalk Therapeutics, Inc., priority 2015, dated 2024)
